Data on nine compounds can be found in patent publication US20070129252A1, “2-Halo-6-alkylphenyl-substituted spirocyclic tetramic acid derivatives” (BAYER CROPSCIENCE AKTIENGESELLSCHAFT, priority 2003, published 2007).

SMILES strings stand for the structures.

What all share (format): in vivo
One assay deals with Avena sativa. Kind of assay: Herbicidal post-emergence action (Example M). As to conditions: greenhouse, 320 g of a.i./ha, about 3 weeks. On the procedure:
(§1) Herbicidal Post-Emergence Action
(§2) Seeds of monocotyledonous and dicotyledonous weed and crop plants are placed into sandy loam in wood fibre pots, covered with soil and cultivated in a greenhouse under good growth conditions. 2-3 weeks after sowing, the test plants are treated at the one-leaf stage. The test compounds, formulated as wettable powders (WP), are, in various dosages with a water application rate of 600 l/ha (converted), with 0.2% of wetting agent added, sprayed onto the green parts of the plants. After the test plants were kept in the greenhouse under optimum growth conditions for about 3 weeks, the effect of the preparations is rated visually in comparison to untreated controls (herbicidal effect in percent (%): 100% effect=the plants have died, 0% effect=like control plants).

In assay [1] the test system is Lolium. The experiment in a line: Herbicidal post-emergence action (Example M). Conditions: greenhouse, 320 g of a.i./ha, about 3 weeks. How it is done: as §1, §2
For assay [2], the system named is Setaria. The experiment in a line: Herbicidal post-emergence action (Example M). Conditions: greenhouse, 320 g of a.i./ha, about 3 weeks. How it is done:
as §1, §2

A further assay concerns summer wheat. The experiment in a line: Herbicidal post-emergence action, vessel trials with cereals in the greenhouse, use of safeners (Example N). Conditions: without safener. On the procedure: as §1
(§3) Seeds of monocotyledonous and dicotyledonous weed and crop plants are placed into sandy loam in wood fibre pots or in plastic pots, covered with soil and cultivated in a greenhouse, during the vegetation period also outdoors outside of the greenhouse, under good growth conditions. 2-3 weeks after sowing, the test plants are treated at the one- to three-leaf stage. The test compounds, formulated as wettable powders (WP) or emulsifiable concentrates (EC) are, in various dosages with a water application rate of 300 l/ha (converted), with wetting agent (0.2 to 0.3%) added, sprayed onto the plants and the surface of the soil. 3-4 weeks after the treatment of the test plants, the effect of the preparations is rated visually in comparison to untreated controls (herbicidal effect in percent (%): 100% effect=the plants have died, 0% effect=like control plants).
(§4) If it is additionally to be tested as to whether safeners can improve the plant compatibility of test substances in the case of crop plants, the following options are used for applying the safener: • seeds of the crop plants are, before sowing, dressed with the safener substance (the amount of safener is stated in percent, based on the weight of the seed) • before the application of the test substances, the crop plants are sprayed with the safener at a certain application rate per hectare (usually 1 day before the application of the test substances) • the safener is applied together with the test substance as a tank mix (the amount of safener is stated in g/ha or as a ratio, based on the herbicide).
(§5) By comparing the effect of the test substances on crop plants without or with safener treatment, it is possible to assess the effect of the safener substance.
(§6) Vessel Trials with Cereals in the Greenhouse
(§7) Mefenpyr applied 1 day prior to the application of herbicide

Assay [3] deals with Sinapis. The experiment in a line: Herbicidal post-emergence action (Example M). As to conditions: greenhouse, 320 g of a.i./ha, about 3 weeks. On the procedure: as §1, §2
Assay [4] deals with Lolium. Kind of assay: Herbicidal pre-emergence action (Example L). Conditions: greenhouse, 320 g of a.i./ha, 3 weeks. An excerpt:
(§8) Herbicidal Pre-Emergence Action
(§9) Seeds of monocotyledonous and dicotyledonous weed and crop plants are placed into sandy loam in wood fibre pots and covered with soil. The test compounds, formulated in the form of wettable powders (WP), are then, in various dosages as aqueous suspension with a water application rate of 600 l/ha (converted), with 0.2% of wetting agent added, applied to the surface of the covering soil.
(§10) After the treatment, the pots are placed in a greenhouse and kept under good growth conditions for the test plants. The visual assessment of the emergence damage on the test plants is carried out after a trial period of 3 weeks by comparison with untreated controls (herbicidal effect in percent (%): 100% effect=the plants have died, 0% effect=like control plants).

In assay [5] the test system is Setaria. The experiment in a line: Herbicidal pre-emergence action (Example L). Conditions: greenhouse, 320 g of a.i./ha, 3 weeks.
Excerpt: as §8, §9, §10

Assay [6] relates to Sinapis. Kind of assay: Herbicidal pre-emergence action (Example L). As to conditions: greenhouse, 320 g of a.i./ha, 3 weeks.
Excerpt: as §8, §9, §10

The next assay relates to Stellaria. Kind of assay: Herbicidal pre-emergence action (Example L). As to conditions: greenhouse, 320 g of a.i./ha, 3 weeks.
Excerpt: as §8, §9, §10

Another assay concerns summer barley. The experiment in a line: Herbicidal post-emergence action, vessel trials with cereals in the greenhouse, use of safeners (Example N). As to conditions: without safener. On the procedure:
as §1, §3, §4, §5, §6, §7

A further assay deals with Myzus persicae. Kind of assay: Myzus test (spray treatment). Conditions: 100 g/ha, Chinese cabbage discs. How it is done:
Myzus Test (Spray Treatment)
(§11) To produce a suitable preparation of active compound, 1 part by weight of active compound is mixed with the stated amounts of solvent and emulsifier, and the concentrate is diluted with emulsifier-containing water to the desired concentration.
Discs of Chinese cabbage (Brassica pekinensis), which are infested by all stages of the green peach aphid (Myzus persicae), are sprayed with a preparation of active compound of the desired concentration.
After the desired period of time, the effect in % is determined. 100% means that all aphids have been killed; 0% means that none of the aphids have been killed.

The subject of assay [7] is Tetranychus urticae. Kind of assay: Tetranychus test (OP-resistant/spray treatment). As to conditions: 100 g/ha; spray treatment; bean leaf discs. On the procedure:
Tetranychus Test (OP-Resistant/Spray Treatment)
To produce a suitable preparation of active compound, 1 part by weight of active compound is mixed with the stated amounts of solvents and emulsifier, and the concentrate is diluted with emulsifier-containing water to the desired concentration.
Discs of bean leaves (Phaseolus vulgaris) which are infested by all stages of the greenhouse red spider mite (Tetranychus urticae) are sprayed with a preparation of active compound of the desired concentration.
(§12) After the desired period of time, the activity in % is determined. 100% means that all spider mites have been killed; 0% means that none of the spider mites have been killed.

In a further assay the test system is Amaranthus. Kind of assay: Herbicidal pre-emergence action (Example L). Conditions: greenhouse, 320 g of a.i./ha, 3 weeks.
Excerpt: as §8, §9, §10

In assay [8] the test system is Tetranychus urticae. The experiment in a line: Tetranychus test (OP-resistant/dip treatment). Conditions: 4 ppm; dip treatment; bean plants (Table B). On the procedure:
Tetranychus Test (OP-Resistant/Dip Treatment)
as §11
Bean plants (Phaseolus vulgaris), which are heavily infested by all stages of the greenhouse red spider mite (Tetranychus urticae), are dipped into a preparation of active compound of the desired concentration.
as §12

The test system of a further assay is Phaedon cochleariae. Kind of assay: Phaedon test (spray treatment). As to conditions: 100 g/ha, Chinese cabbage discs. How it is done:
Phaedon Test (Spray Treatment) [table] To produce a suitable preparation of active compound, 1 part by weight of active compound is mixed with the stated amounts of solvents and emulsifier, and the concentrate is diluted with emulsifier-containing water to the desired concentration. Discs of Chinese cabbage (Brassica pekinensis) are sprayed with a preparation of active compound of the desired concentration and, after they have dried, populated with larvae of the mustard beetle (Phaedon cochleariae).

For `CCc1cc(C)cc(Br)c1C1=C(OC(=O)COC)C2(CCCCC2)NC1=O` [Example I-b-2], the “herbicidal effect in percent, Avena sativa” value in the assay on Avena sativa is 90%. Also, the “herbicidal effect in percent, Lolium” value in the assay on Lolium [1] was 100%. Further, the “herbicidal effect in percent, Setaria” value in the assay with Setaria [2] is listed as 100%. Also, the figures for the “summer wheat observed (%)” value in the assay with summer wheat (12.5 g of a.i./ha), with summer wheat (25 g of a.i./ha) and in the assay on summer wheat (50 g of a.i./ha) were 20%, 70% and 98%, respectively.

For the compound `CCc1cc(C)cc(Br)c1C1=C(OC(=O)C(C)(C)C)C2(CCCCC2)NC1=O` [I-b-4], the “herbicidal effect in percent, Avena sativa” value in the assay with Avena sativa is 80%. The “herbicidal effect in percent, Lolium” value in the assay with Lolium [1] stood at 90%. The “herbicidal effect in percent, Setaria” value with Setaria [2] came out at 90%.

Take `CCOC(=O)OC1=C(c2c(Br)cc(C)cc2CC)C(=O)NC12CCCCC2` [I-c-2]: the “herbicidal effect in percent, Avena sativa” value in the assay on Avena sativa amounted to 90%. Besides, the “herbicidal effect in percent, Lolium” value in the assay with Lolium [1] was determined as 90%. For the same compound, in the assay on Setaria [2], the “herbicidal effect in percent, Setaria” value was 80%.

On to `CCOC(=O)OC1=C(c2c(Cl)cc(C)cc2CC)C(=O)NC12CCC(OC)CC2` (single isomer, unassigned) [Example I-c-4], for which, in the assay on Avena sativa, the “herbicidal effect in percent, Avena sativa” value stood at 100%. Also, the figures for the “herbicidal effect in percent, Lolium” value in the assay on Lolium [1] and in the assay with Lolium [4] were 100% and 80%, respectively. Further, the “herbicidal effect in percent, Setaria” value with Setaria [2] came to 100%; with Setaria [5], 90%. In addition, the “herbicidal effect in percent, Sinapis” value in the assay on Sinapis [3] worked out at 80%; with Sinapis [6] it was 70%. The “herbicidal effect in percent, Stellaria” value in the assay with Stellaria came out at 80%. Moreover, the entries for the “summer barley observed (%)” value in the assay with summer barley (12.5 g of a.i./ha) and with summer barley (25 g of a.i./ha) were 20% and 70%, respectively. For the same compound, in the assay with summer wheat (12.5 g of a.i./ha), the “summer wheat observed (%)” value stood at 60%.

As for `CCc1cc(C)cc(Br)c1C1=C(OC(=O)COC)C2(CCC(OC)CC2)NC1=O` (single isomer, unassigned) [Example I-b-5], the “Kill rate in % after 5d” value is 80% in the assay with Myzus persicae and 70% in the assay on Tetranychus urticae [7]. In addition, the “herbicidal effect in percent, Avena sativa” value in the assay on Avena sativa came to 100%. Moreover, the “herbicidal effect in percent, Lolium” value in the assay on Lolium [1] and in the assay with Lolium [4] was 100% each time. Besides, the figures for the “herbicidal effect in percent, Setaria” value in the assay with Setaria [2] and in the assay with Setaria [5] were 100% and 90%, respectively. Also, the entries for the “herbicidal effect in percent, Sinapis” value with Sinapis [3] and in the assay with Sinapis [6] were 70% and 80%, respectively. Also, the “summer barley observed (%)” value with summer barley (12.5 g of a.i./ha) is on record as 35%; in the assay with summer barley (25 g of a.i./ha), 65%; in the assay with summer barley (50 g of a.i./ha) it was 98%.

`CCOC(=O)OC1=C(c2c(Br)cc(C)cc2CC)C(=O)NC12CCC(OC)CC2` (single isomer, unassigned) [I-c-3]: the “Kill rate in % after 5d” value in the assay with Myzus persicae and in the assay with Tetranychus urticae [7] was 80% throughout. Besides, the “herbicidal effect in percent, Avena sativa” value in the assay on Avena sativa came to 100%. Moreover, the “herbicidal effect in percent, Lolium” value in the assay with Lolium [1] and in the assay on Lolium [4] was 100% throughout. The “herbicidal effect in percent, Setaria” value in the assay on Setaria [2] and in the assay on Setaria [5] was 100% throughout. Besides, the “herbicidal effect in percent, Sinapis” value in the assay with Sinapis [3] was 70%. In addition, in the assay with Amaranthus, the “herbicidal effect in percent, Amaranthus” value is 100%.

As to `CCc1cc(C)cc(Br)c1C1=C(O)C2(CCCCC2)NC1=O` [I-a-2], in the assay with Avena sativa, the “herbicidal effect in percent, Avena sativa” value is listed as 80%. The “herbicidal effect in percent, Lolium” value in the assay on Lolium [1] is on record as 90%. For the same compound, the “herbicidal effect in percent, Setaria” value in the assay with Setaria [2] was determined as 100%.

As for `CCc1cc(C)cc(Br)c1C1=C(O)C2(CCC(OC)CC2)NC1=O` (single isomer, unassigned) [Example I-a-3], the entries for the “Kill rate in % after 7d” value in the assay on Tetranychus urticae [8] and in the assay with Phaedon cochleariae were 50% and 100%, respectively. Besides, the figures for the “Kill rate in % after 5d” value with Myzus persicae and in the assay with Tetranychus urticae [7] were 100% and 90%, respectively. The “herbicidal effect in percent, Avena sativa” value in the assay on Avena sativa is 100%. The “herbicidal effect in percent, Lolium” value in the assay with Lolium [1] amounted to 100%; in the assay on Lolium [4] it was 80%. For the same compound, the “herbicidal effect in percent, Setaria” value in the assay with Setaria [2] and with Setaria [5] was 100% throughout. For the same compound, the “herbicidal effect in percent, Sinapis” value in the assay with Sinapis [3] came to 80%. Further, in the assay on Amaranthus, the “herbicidal effect in percent, Amaranthus” value worked out at 80%. For the same compound, the “summer barley observed (%)” value with summer barley (25 g of a.i./ha) came to 20%; with summer barley (50 g of a.i./ha), 90%; in the assay with summer barley (100 g of a.i./ha), 95%. The “summer wheat observed (%)” value in the assay on summer wheat (25 g of a.i./ha) is 60%.

Take `CCc1cc(C)cc(Br)c1C1=C(OC(=O)C(C)C)C2(CCCCC2)NC1=O` [Example I-b-3]: in the assay with Avena sativa, the “herbicidal effect in percent, Avena sativa” value worked out at 100%. The “herbicidal effect in percent, Lolium” value in the assay with Lolium [1] is 90%. The “herbicidal effect in percent, Setaria” value with Setaria [2] came out at 100%. For the same compound, the “summer wheat observed (%)” value with summer wheat (12.5 g of a.i./ha) is reported as 10%; with summer wheat (25 g of a.i./ha), 20%; with summer wheat (50 g of a.i./ha), 75%.
